Measurements from paper PMC11887051, “Discovery of ONO-2920632 (VU6011887): A Highly Selective and CNS Penetrant TREK-2 (TWIK-Related K+ Channel 2) Preferring Activator In Vivo Tool Compound” (ACS Chemical Neuroscience, 2025).

Assays:
[1] = rat plasma:brain level study (Kp, Kp,uu); assay type: in vivo; settings: male, Sprague-Dawley, brain and plasma; for Kp at 2 h / Kp uu at 2 h: oral rat plasma:brain level study, 2 h after 3 mg/kg PO
Procedure: In vivo DMPK experimental:
Determination of brain to plasma ratio:
All animal study procedures were approved by the Institutional Animal Care and Use Committee and were conducted in accordance with the National Institutes of Health regulations of animal care covered in Principles of Laboratory Animal Care (National Institutes of Health). All rats were fasted overnight prior to testing. […]
At 15 min post dosing, blood sample was collected into chilled, K2EDTA anticoagulant-fortified tube and immediately placed on wet ice. The blood sample was then centrifuged (1700 rcf, 5 minutes, 4 °C) to obtain plasma sample. At the same post-administration time point, whole brain sample was obtained by rapid dissection, rinsed with PBS, and immediately frozen in individual tissue collection box (dry ice). All brain and plasma samples were stored at -80 °C until […]
Sample Analysis: Concentrations in plasma and brain homogenates were quantified by liquid chromatography tandem mass spectrometry (LC-MS/MS). Whole brains were homogenized in 3 mL of 70:30 IPA:water in a mini bead beater for 3 min, and centrifuged at 3,500 g for 5 min. 5 uL of the supernatant was diluted in 15 uL of blank plasma for quantification of the analytes. Plasma samples were centrifuged at 3,500 g for 5 min. A standard curve was generated by diluting the analytes DMSO stocks with blank plasma to obtain a final concentration of 10,000 ng/ml followed by a serial dilution down to 0.5 ng/ml. Quality controls were generated by a serial dilution of the 5,000 ng/ml standard curve solution in blank plasma to obtain 3 concentrations of 500, 50, and 5 ng/ml. 20 uL of brain diluted in plasma, plasma, blank plasma, standard curve and QC samples were loaded in a V-bottom 96-well plate. 120 uL of acetonitrile containing 0.05 uM carbamazepine (internal standard) was added to each well and the plate was centrifuged at 3,500 g for 5 min. 60 uL of the supernatant of each well (protein free) was transferred to a new 96-well plate containing 60 uL of water. The plates were sealed for analysis by LC-MS/MS.
Plasma and brain tissue samples originating from in vivo studies were analyzed by electrospray ionization using an AB Sciex Q-TRAP 5500 (Foster City, CA) that was coupled to a Shimadzu LC-20AD pump (Columbia, MD) and a Leap Technologies CTC PAL auto-sampler (Carrboro, NC). Analytes were separated by gradient elution using a C18 column (3 x 50 mm, 3 mm; Fortis Technologies Ltd, Cheshire, UK) that was thermostated at 40 °C. HPLC mobile phase A was 0.1% formic acid in water (pH unadjusted); mobile phase B was 0.1% formic acid in acetonitrile (pH […]
min, with an isocratic hold for 0.5 min, before transitioning to 10% B over 0.05 min. The column was re-equilibrated (1 min) before the next sample injection. The total run time was 2.55 min, and the HPLC flow rate was 0.5 ml/min. The source temperature was set at 500 °C, and mass spectral analyses were performed using a Turbo-Ion spray source in positive ionization mode (5.0-kV spray voltage) and using multiple-reaction monitoring of transitions specific for the analytes. All data were analyzed using AB Sciex Analyst 1.5.1 software.
Brain plasma concentration ratio (Kp) was calculated by dividing brain concentration by plasma concentration for each animal. Unbound brain to unbound plasma concentration ratio (Kp,uu) is calculated using the following formula: Kp,uu = (Brain ng/g x brain fu)/(plasma ng/ml x plasma fu).
For determination of the plasma concentration-time profile, compounds were formulated in methyl cellulose and administered as a 3 mg/kg PO dose to male C57BL/6 mouse or SD rat (n = 2). For the same determination, compounds were formulated in HP-β-CD and administered as a 0.1 mg/kg IV dose to male beagle dog (n = 2).
Plasma samples originating from in vivo studies were analyzed by electrospray ionization using a Q-TRAP 5500 (AB Sciex) that was coupled to a Prominence UFLC XR (Shimadzu Corporation). […]

TREK-1 = biological target: T1, TREK-1 (Homo sapiens, UniProt O95069); assay: TREK-1 thallium flux assay (hTREK-1/CHO); assay type: cell-based; design: host or cells: CHO; settings: for Emax: % activation relative to 10 µM BL-1249
T1 sequence (O95069 1-426): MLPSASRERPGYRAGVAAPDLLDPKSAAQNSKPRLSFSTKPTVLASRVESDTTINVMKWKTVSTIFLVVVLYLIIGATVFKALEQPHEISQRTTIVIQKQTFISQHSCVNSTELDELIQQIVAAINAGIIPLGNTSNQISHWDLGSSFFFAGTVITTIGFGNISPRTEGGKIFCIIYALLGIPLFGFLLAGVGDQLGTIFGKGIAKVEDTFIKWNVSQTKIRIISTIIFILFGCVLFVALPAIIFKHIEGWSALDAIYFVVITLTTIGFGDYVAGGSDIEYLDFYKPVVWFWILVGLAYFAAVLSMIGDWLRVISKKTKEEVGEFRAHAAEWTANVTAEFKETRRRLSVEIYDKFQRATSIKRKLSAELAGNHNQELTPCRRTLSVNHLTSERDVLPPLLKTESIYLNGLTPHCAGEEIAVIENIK
Procedure: Procedures for Biological Experiments
TREK-1 and TREK-2 thallium flux assay protocol
CHO cells stably expressing human TREK-1 (hTREK-1/CHO) were constructed at Evotec. […]
hTREK-1/CHO or hTREK-2/HEK were plated in 384-well plates at a density of 1.0x10^4 cells/well or 2.0x10^4 cells/well, respectively, and cultured overnight. After the wash by HBSS + 20 mM HEPES buffer, cells were loaded with Thallos dye for 1 hour at room temperature. After the wash […]
dissolved with HBSS + 20mM HEPES buffer were added to each well. After 10 minutes incubation at room temperature, thallium stimulus buffer were added to each well and the fluorescent intensity are measured by Panoptic. The final thallium concentration was 0.36 mM in […]
TREK-1 or 0.24 mM in TREK-2, respectively. […]

[2] = intravenous, 0.2 mg/kg, rat cassette PK study

Row | Compound | Kp at 2 h [1] | Kp uu at 2 h [1] | EC50 (TREK-1) | Emax (TREK-1) | Kp at 15 min [1, 2] | Kp uu at 15 min [1, 2] | Kp uu ([1]; rat, dosing not given)
1 | CS(=O)(=O)Nc1ccc(C(=O)NCc2ccc(Cl)cc2Cl)cc1 [Compound 13] | 0.26 | 0.15 | 8.1 µM | 85% | – | – | –
2 | O=C(NCc1ccc(Br)cc1Cl)c1ccc(-c2ncn[nH]2)cc1 [Compound 14a] | – | – | 1.6 µM | 93% | 0.2 | 0.36 | –
3 | Cc1cc(OC(F)(F)F)ccc1CNC(=O)c1ccc2ncnn2c1 [Compound 19a] | 0.5 | 0.2 | 3.8 µM | 99% | – | – | –
4 | O=C(NCc1ccc(OC(F)(F)F)cc1F)c1ccc2ncnn2c1 [Compound 19b] | 0.37 | 0.38 | 2.8 µM | 95% | – | – | –
5 | O=C(NCc1ccc(OC(F)(F)F)cc1Cl)c1ccc2nncn2c1 [Compound 20] | – | – | – | – | – | – | 0.078
